SMILES strings stand for the structures. pKi: −log10 of the molar value. Some results are limits rather than exact numbers.

The target of this assay is 5-hydroxytryptamine receptor 7 (Homo sapiens, UniProt P34969). Nature of the assay: Displacement of [3H]-LSD from 5HT7 receptor (unknown origin) expressed in CHOK1 cells. It counts as cell-based, CHO-K1.
Chain of 5-hydroxytryptamine receptor 7 (P34969 whole entry): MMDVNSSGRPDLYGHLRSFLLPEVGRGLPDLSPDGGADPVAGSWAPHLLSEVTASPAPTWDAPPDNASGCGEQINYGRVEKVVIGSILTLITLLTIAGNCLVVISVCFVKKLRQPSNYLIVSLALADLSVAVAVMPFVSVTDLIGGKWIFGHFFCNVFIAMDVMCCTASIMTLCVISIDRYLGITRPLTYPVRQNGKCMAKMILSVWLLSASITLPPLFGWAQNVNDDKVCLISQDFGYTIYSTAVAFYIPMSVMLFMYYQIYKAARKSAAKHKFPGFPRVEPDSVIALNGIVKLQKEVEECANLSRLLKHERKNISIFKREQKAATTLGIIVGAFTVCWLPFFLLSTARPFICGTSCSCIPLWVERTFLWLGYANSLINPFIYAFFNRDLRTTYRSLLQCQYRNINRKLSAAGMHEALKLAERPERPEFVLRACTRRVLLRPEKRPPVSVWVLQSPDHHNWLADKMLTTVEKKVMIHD

Regarding `COc1ccc(-c2ccccc2CN2CCN(c3ccccc3OC)CC2)cc1`, the pKi was 7.34.
`COc1ccc(N2CCN(Cc3ccccc3-c3ccccc3)CC2)cc1OC` had a pKi of 5.73.
Compound `Cc1ccccc1N1CCN(Cc2ccccc2-c2ccccc2)CC1` had a pKi of 5.76.
As for `Cc1cccc(N2CCN(Cc3ccccc3-c3ccccc3)CC2)c1`, the figure is 5.92; as for `Cc1ccc(N2CCN(Cc3ccccc3-c3ccccc3)CC2)cc1`, 5.56; as for `Cc1cccc(N2CCN(Cc3ccccc3-c3ccccc3)CC2)c1C`, < 5.00.
To `Cc1ccc(N2CCN(Cc3ccccc3-c3ccccc3)CC2)c(C)c1` belongs < 5.00.
With `Cc1ccc(C)c(N2CCN(Cc3ccccc3-c3ccccc3)CC2)c1`, the pKi is < 5.00.
As for `Cc1cc(C)cc(N2CCN(Cc3ccccc3-c3ccccc3)CC2)c1`, the figure is < 5.00.
As for `FC(F)(F)c1cccc(N2CCN(Cc3ccccc3-c3ccccc3)CC2)c1`, the figure is 5.78; as for `COc1ccccc1N1CCN(Cc2ccccc2-c2ccccc2F)CC1`, 6.18.
As for `COc1ccccc1N1CCN(Cc2ccccc2-c2ccccc2Cl)CC1`, the figure is 6.53.
As for `COc1ccccc1N1CCN(Cc2ccccc2-c2cccc(Cl)c2)CC1`, the pKi is 6.66.
As to `COc1ccccc1N1CCN(Cc2ccccc2-c2ccc(Cl)cc2)CC1`, the pKi is 6.66.
To `COc1ccccc1N1CCN(Cc2ccccc2-c2ccccc2C)CC1` belongs 6.51; to `COc1ccccc1-c1ccccc1CN1CCN(c2ccccc2OC)CC1`, 7.37; to `COc1cccc(-c2ccccc2CN2CCN(c3ccccc3OC)CC2)c1`, 7.11.
Regarding `Fc1ccccc1N1CCN(Cc2ccccc2-c2ccccc2)CC1`, the pKi is < 5.00.
To `Fc1cccc(N2CCN(Cc3ccccc3-c3ccccc3)CC2)c1` belongs < 5.00; to `Fc1ccc(N2CCN(Cc3ccccc3-c3ccccc3)CC2)cc1`, < 5.00.
As for `Clc1ccccc1N1CCN(Cc2ccccc2-c2ccccc2)CC1`, the figure is < 5.00.
On to `Clc1ccc(N2CCN(Cc3ccccc3-c3ccccc3)CC2)cc1`, for which the pKi was < 5.00.
To `COc1cccc(N2CCN(Cc3ccccc3-c3ccccc3)CC2)c1` belongs < 5.00; to `COc1ccc(N2CCN(Cc3ccccc3-c3ccccc3)CC2)cc1`, < 5.00.

A word on the pKi: it is −log10 of the Ki, conventionally taken in molar units. Higher therefore signals a low Ki.

The values above are taken from ChEMBL document CHEMBL2375224, “Discovery of aryl-biphenyl-2-ylmethylpiperazines as novel scaffolds for 5-HT(7) ligands and role of the aromatic substituents in binding to the target receptor” (Bioorg Med Chem, 2013).
